Reference: article PMC6910612 (Translational Vision Science & Technology, 2019)

How the values were obtained:
[1] = molecular target: wild-type opsin (Homo sapiens, UniProt P08100); experiment: 9-cis-retinal binding to opsin; settings: 3.0 μM purified wild-type opsin
[2] = system: P23H, E181K and T17M rhodopsin; settings: cells; cited from earlier work
[3] = system: opsin; settings: cited from earlier work
[4] = system: P23H rhodopsin; settings: P23H knock-in mice; cited from earlier work
[5] = system: P23H Rho transgenic rats; settings: cited from earlier work

## CC1=C(/C=C/C(C)=C\C=C\C(C)=C\C=O)C(C)(C)CCC1 [9-cis-retinal]
[1]
  concentration at which opsin was saturated: 5 µM

## CC(=C/C(=O)O)/C=C/C=C(\C)C1C=C2C(C)(C)CCCC2(C)O1 (stereo not drawn) [13-cis-5,8-ERA]
[2]
  folding and transport of rhodopsin mutants: more effective in promoting the folding and transport of the P23H and E181K mutations than it was for the T17M mutation
[3]
  competition with 9-cis-retinal for binding to opsin: appeared to compete with 9-cis-retinal for binding to opsin

## CN(C)C(=N)N=C(N)N [metformin]
[4]
  transport of P23H rhodopsin to outer segments: increased transport of P23H rhodopsin to outer segments
[5]
  retinal degeneration: increased retinal degeneration
